These are literature values, as cited in article PMC8217170, “Phase Ib dose-escalation study of the hypoxia-modifier Myo-inositol trispyrophosphate in patients with hepatopancreatobiliary tumors” (Nature Communications, 2021).

In one data set the test system is hepatocellular carcinoma. Details: method as in ref 10 (supplementary references). As to conditions: syngeneic, orthotopic rat model of hepatocellular carcinoma; ref 10 (supplementary references); cited from earlier work.
The next data set deals with pancreatic carcinoma. Details: method as in ref 15 (supplementary references). As to conditions: 100 mg/kg gemcitabine; ref 15 (supplementary references); cited from earlier work.

As to `COc1cccc2c1C(=O)c1c(O)c3c(c(O)c1C2=O)C[C@@](O)(C(=O)CO)C[C@@H]3O[C@H]1C[C@H](N)[C@H](O)[C@H](C)O1` [doxorubicin, reference compound], the “Rats alive after 100 days” value in the data set with hepatocellular carcinoma is “one out of ten”.
For `Nc1ccn([C@@H]2O[C@H](CO)[C@@H](O)C2(F)F)c(=O)n1` [gemcitabine, reference compound], the Survival in the data set with pancreatic carcinoma is 63 days.
